Consider 17 compounds from patent US20260297081A1, “COMPOUNDS AND METHODS OF TREATING CANCERS” (Cullgen Inc., priority 2023, published 2026).

Where only a bound is given, the exact number is not on record here.

The term inhibition denotes the percentage by which the read-out fell short of the control.

For this assay, the target named is CDK4 (Homo sapiens, UniProt P11802+Q16531). Description: CDK4 percentage degradation in Calu-1 cells (Table 6). The class given is cell-based. Also on record: Cells that express cyclin D1-3 and CDK4/6 proteins were treated with heterobifunctional compounds; endogenous in cells; host or cells: Calu-1. Conditions: 16 hours; for inhibition at 0.04 µM: 40 nM; for inhibition at 0.2 µM: 200 nM. The method in brief:
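Calu-1 cells exposed to heterobifunctional compounds at 40 nM or 200 nM for 16 h. Cyclin D1 and CDK4 levels measured by Western blot of RIPA lysates (BCA-normalised loading), bands quantified by densitometry and expressed as percentage degradation.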

CDK4, sequence (P11802 2-303 limits assumed): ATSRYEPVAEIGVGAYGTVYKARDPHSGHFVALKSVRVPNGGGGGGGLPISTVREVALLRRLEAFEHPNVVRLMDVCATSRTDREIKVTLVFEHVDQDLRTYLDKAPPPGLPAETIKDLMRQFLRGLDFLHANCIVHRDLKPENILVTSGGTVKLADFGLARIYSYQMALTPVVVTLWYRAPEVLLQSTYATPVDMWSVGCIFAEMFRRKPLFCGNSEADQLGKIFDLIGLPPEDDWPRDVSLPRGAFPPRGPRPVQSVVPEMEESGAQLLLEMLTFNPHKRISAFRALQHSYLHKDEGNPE
CDK4, sequence (P24385 whole entry partner): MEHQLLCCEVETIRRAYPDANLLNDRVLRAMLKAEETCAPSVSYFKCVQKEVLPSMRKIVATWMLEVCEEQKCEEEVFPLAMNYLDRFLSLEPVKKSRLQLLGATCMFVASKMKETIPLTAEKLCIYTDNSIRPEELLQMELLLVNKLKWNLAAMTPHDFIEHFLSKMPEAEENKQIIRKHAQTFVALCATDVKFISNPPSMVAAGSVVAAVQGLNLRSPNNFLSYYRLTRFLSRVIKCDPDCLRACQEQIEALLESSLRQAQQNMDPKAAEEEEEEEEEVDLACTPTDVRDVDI
CDK4, sequence (Q16531 2-1140 limits assumed): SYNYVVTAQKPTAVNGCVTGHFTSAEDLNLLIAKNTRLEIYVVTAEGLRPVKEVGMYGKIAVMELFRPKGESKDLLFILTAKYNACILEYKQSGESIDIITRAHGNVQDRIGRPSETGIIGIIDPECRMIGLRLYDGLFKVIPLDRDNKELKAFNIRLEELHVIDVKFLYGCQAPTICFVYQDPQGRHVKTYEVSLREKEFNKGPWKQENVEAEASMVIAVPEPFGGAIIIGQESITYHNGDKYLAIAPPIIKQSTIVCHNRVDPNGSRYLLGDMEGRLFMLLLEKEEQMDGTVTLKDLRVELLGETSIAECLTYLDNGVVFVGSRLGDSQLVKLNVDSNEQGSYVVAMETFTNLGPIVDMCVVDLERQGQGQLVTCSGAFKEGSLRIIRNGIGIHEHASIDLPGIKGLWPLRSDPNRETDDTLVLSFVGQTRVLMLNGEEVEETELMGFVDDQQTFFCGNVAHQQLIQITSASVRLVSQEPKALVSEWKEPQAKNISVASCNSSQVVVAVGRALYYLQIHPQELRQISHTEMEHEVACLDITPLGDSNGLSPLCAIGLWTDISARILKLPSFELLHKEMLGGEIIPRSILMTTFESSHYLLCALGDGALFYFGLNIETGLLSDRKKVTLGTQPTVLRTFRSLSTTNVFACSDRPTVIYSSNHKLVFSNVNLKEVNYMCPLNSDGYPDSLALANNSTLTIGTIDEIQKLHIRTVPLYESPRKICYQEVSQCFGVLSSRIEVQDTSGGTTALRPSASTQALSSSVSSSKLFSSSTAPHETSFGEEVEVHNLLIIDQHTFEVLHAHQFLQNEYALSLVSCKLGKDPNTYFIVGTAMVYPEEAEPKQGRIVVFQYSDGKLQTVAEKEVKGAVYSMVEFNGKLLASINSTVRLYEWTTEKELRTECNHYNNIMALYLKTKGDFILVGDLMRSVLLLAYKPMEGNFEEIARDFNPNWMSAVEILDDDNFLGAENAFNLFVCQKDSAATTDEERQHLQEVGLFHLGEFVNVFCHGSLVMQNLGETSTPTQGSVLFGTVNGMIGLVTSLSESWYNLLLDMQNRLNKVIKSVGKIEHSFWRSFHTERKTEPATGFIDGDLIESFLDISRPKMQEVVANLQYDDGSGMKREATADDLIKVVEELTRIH

In turn, `CNc1ccc(C(=O)Nc2ccc(N(C)C)nn2)c(NC2CC3(C2)CC(C(=O)N2CCN(c4ccc(Nc5ncc6c(C)c(C(C)=O)c(=O)n(C7CCCC7)c6n5)nc4)CC2)C3)n1` (centres unmarked) [CPD-140, 2-((6-(4-(6-((6-Acetyl-8-cyclopentyl-5-methyl-7-oxo-7,8-dihydropyrido[2,3-d]pyrimidin-2-yl)amino)pyridin-3-yl)piperazine-1-carbonyl)spiro[3.3]heptan-2-yl)amino)-N-(6-(dimethylamino)pyridazin-3-yl)-6-(methylamino)nicotinamide] displayed an inhibition at 0.04 µM of less than 30% and an inhibition at 0.2 µM of 50 to 80%.
The matching figures for `CNc1ccc(C(=O)Nc2ccc3c(cnn3C)n2)c(NCCCCCNC(=O)CN2CCN(c3ccc(Nc4ncc5c(C)c(C(C)=O)c(=O)n(C6CCCC6)c5n4)nc3)CC2)n1` [CPD-32]: less than 30% and less than 30%.
`CNc1ccc(C(=O)Nc2cc[nH]n2)c(NC2CC3(CC(NC(=O)CN4CCN(c5ccc(Nc6ncc7c(C)c(C(C)=O)c(=O)n(C8CCCC8)c7n6)nc5)CC4)C3)C2)n1` (centres unmarked) [CPD-100, 2-((6-(2-(4-(6-((6-Acetyl-8-cyclopentyl-5-methyl-7-oxo-7,8-dihydropyrido[2,3-d]pyrimidin-2-yl)amino)pyridin-3-yl)piperazin-1-yl)acetamido)spiro[3.3]heptan-2-yl)amino)-6-(methylamino)-N-(1H-pyrazol-3-yl)nicotinamide] came in with an inhibition at 0.04 µM of less than 30% and an inhibition at 0.2 µM of 50 to 80%.
As for `CNc1ccc(C(=O)Nc2cc(C(C)C)on2)c(NC2CC3(CC(NC(=O)CN4CCN(c5ccc(Nc6ncc7c(C)c(C(C)=O)c(=O)n(C8CCCC8)c7n6)nc5)CC4)C3)C2)n1` (centres unmarked) [CPD-227, 2-((6-(2-(4-(6-((6-acetyl-8-cyclopentyl-5-methyl-7-oxo-7,8-dihydropyrido[2,3-d]pyrimidin-2-yl)amino)pyridin-3-yl)piperazin-1-yl)acetamido)spiro[3.3]heptan-2-yl)amino)-N-(5-isopropylisoxazol-3-yl)-6-(methylamino)nicotinamide], the inhibition at 0.04 µM is less than 30% and the inhibition at 0.2 µM was less than 30%.
Turning to `CNc1cccc(NC(=O)c2ccc(NC)nc2NC2CC3(CC(NC(=O)CN4CCN(c5ccc(Nc6ncc7c(C)c(C(C)=O)c(=O)n(C8CCCC8)c7n6)nc5)CC4)C3)C2)n1` (centres unmarked) [CPD-181, 2-((6-(2-(4-(6-((6-acetyl-8-cyclopentyl-5-methyl-7-oxo-7,8-dihydropyrido[2,3-d]pyrimidin-2-yl)amino)pyridin-3-yl)piperazin-1-yl)acetamido)spiro[3.3]heptan-2-yl)amino)-6-(methylamino)-N-(6-(methylamino)pyridin-2-yl)nicotinamide], the inhibition at 0.04 µM was 30 to 50% and the inhibition at 0.2 µM was 50 to 80%.
Compound `CNc1ccc(C(=O)Nc2ccc(C)c(C3CC3)n2)c(NCCCCCCCNC(=O)CN2CCN(c3ccc(Nc4ncc5c(C)c(C(C)=O)c(=O)n(C6CCCC6)c5n4)nc3)CC2)n1` [CPD-6, 2-((7-(2-(4-(6-((6-acetyl-8-cyclopentyl-5-methyl-7-oxo-7,8-dihydropyrido[2,3-d]pyrimidin-2-yl)amino)pyridin-3-yl)piperazin-1-yl)acetamido)heptyl)amino)-N-(6-cyclopropyl-5-methylpyridin-2-yl)-6-(methylamino)nicotinamide] registered an inhibition at 0.04 µM of 50 to 80%.
For `CNc1ccc(C(=O)Nc2ccc(C)c(C)n2)c(NCCCCCNC(=O)CN2CCN(c3ccc(Nc4ncc5c(C)c(C(C)=O)c(=O)n(C6CCCC6)c5n4)nc3)CC2)n1` [CPD-109, 2-((5-(2-(4-(6-((6-Acetyl-8-cyclopentyl-5-methyl-7-oxo-7,8-dihydropyrido[2,3-d]pyrimidin-2-yl)amino)pyridin-3-yl)piperazin-1-yl)acetamido)pentyl)amino)-N-(5,6-dimethylpyridin-2-yl)-6-(methylamino)nicotinamide], the inhibition at 0.04 µM lay within 50 to 80% and the inhibition at 0.2 µM is 50 to 80%.
`CNc1ccc(C(=O)Nc2ccc(C)c(C3CC3)n2)c(NCCCCCNC(=O)CN2CCN(c3ccc(Nc4ncc5c(C)c(C(C)=O)c(=O)n(C6CCCC6)c5n4)nc3)CC2)n1` [CPD-7, 2-((5-(2-(4-(6-((6-acetyl-8-cyclopentyl-5-methyl-7-oxo-7,8-dihydropyrido[2,3-d]pyrimidin-2-yl)amino)pyridin-3-yl)piperazin-1-yl)acetamido)pentyl)amino)-N-(6-cyclopropyl-5-methylpyridin-2-yl)-6-(methylamino)nicotinamide] had an inhibition at 0.04 µM of 50 to 80%.
On to `CNc1ccc(C(=O)Nc2ccc(N(C)C)nn2)c(NC2CC(OCC(=O)N3CCN(c4ccc(Nc5ncc6c(C)c(C(C)=O)c(=O)n(C7CCCC7)c6n5)nc4)CC3)C2)n1` (centres unmarked) [CPD-168, 2-((3-(2-(4-(6-((6-acetyl-8-cyclopentyl-5-methyl-7-oxo-7,8-dihydropyrido[2,3-d]pyrimidin-2-yl)amino)pyridin-3-yl)piperazin-1-yl)-2-oxoethoxy)cyclobutyl)amino)-N-(6-(dimethylamino)pyridazin-3-yl)-6-(methylamino)nicotinamide], for which the inhibition at 0.04 µM is 50 to 80% and the inhibition at 0.2 µM was more than 80%.
`CNc1ccc(C(=O)Nc2cccc(N)n2)c(NC2CC3(CC(NC(=O)CN4CCN(c5ccc(Nc6ncc7c(C)c(C(C)=O)c(=O)n(C8CCCC8)c7n6)nc5)CC4)C3)C2)n1` (centres unmarked) [CPD-180, 2-((6-(2-(4-(6-((6-acetyl-8-cyclopentyl-5-methyl-7-oxo-7,8-dihydropyrido[2,3-d]pyrimidin-2-yl)amino)pyridin-3-yl)piperazin-1-yl)acetamido)spiro[3.3]heptan-2-yl)amino)-N-(6-aminopyridin-2-yl)-6-(methylamino)nicotinamide] came in with an inhibition at 0.04 µM of less than 30% and an inhibition at 0.2 µM of 30 to 50%.
For `CNc1ccc(C(=O)Nc2ccc(N(C)C)nn2)c(NC2CN(C(=O)CN3CCN(c4ccc(Nc5ncc6c(C)c(C(C)=O)c(=O)n(C7CCCC7)c6n5)nc4)CC3)C2)n1` [CPD-187, 2-((1-(2-(4-(6-((6-acetyl-8-cyclopentyl-5-methyl-7-oxo-7,8-dihydropyrido[2,3-d]pyrimidin-2-yl)amino)pyridin-3-yl)piperazin-1-yl)acetyl)azetidin-3-yl)amino)-N-(6-(dimethylamino)pyridazin-3-yl)-6-(methylamino)nicotinamide] the same measures were less than 30% and 50 to 80%.
For `CNc1ccc(C(=O)Nc2cn(C)cn2)c(NC2CC3(CC(NC(=O)CN4CCN(c5ccc(Nc6ncc7c(C)c(C(C)=O)c(=O)n(C8CCCC8)c7n6)nc5)CC4)C3)C2)n1` (centres unmarked) [CPD-152, 2-((6-(2-(4-(6-((6-acetyl-8-cyclopentyl-5-methyl-7-oxo-7,8-dihydropyrido[2,3-d]pyrimidin-2-yl)amino)pyridin-3-yl)piperazin-1-yl)acetamido)spiro[3.3]heptan-2-yl)amino)-N-(1-methyl-1H-imidazol-4-yl)-6-(methylamino)nicotinamide], the inhibition at 0.04 µM is 30 to 50% and the inhibition at 0.2 µM is 50 to 80%.
The matching figures for `CNc1ccc(C(=O)Nc2ccc(N(C)C)cn2)c(NCCCCCNC(=O)CN2CCN(c3ccc(Nc4ncc5c(C)c(C(C)=O)c(=O)n(C6CCCC6)c5n4)nc3)CC2)n1` [CPD-47, 2-((5-(2-(4-(6-((6-Acetyl-8-cyclopentyl-5-methyl-7-oxo-7,8-dihydropyrido[2,3-d]pyrimidin-2-yl)amino)pyridin-3-yl)piperazin-1-yl)acetamido)pentyl)amino)-N-(5-(dimethylamino)pyridin-2-yl)-6-(methylamino)nicotinamide]: less than 30% and 50 to 80%.
The matching figures for `CNc1ccc(C(=O)Nc2ccnc(C3CC3)c2)c(NC2CC3(CC(NC(=O)CN4CCN(c5ccc(Nc6ncc7c(C)c(C(C)=O)c(=O)n(C8CCCC8)c7n6)nc5)CC4)C3)C2)n1` (centres unmarked) [CPD-86, 2-((6-(2-(4-(6-((6-Acetyl-8-cyclopentyl-5-methyl-7-oxo-7,8-dihydropyrido[2,3-d]pyrimidin-2-yl)amino)pyridin-3-yl)piperazin-1-yl)acetamido)spiro[3.3]heptan-2-yl)amino)-N-(2-cyclopropylpyridin-4-yl)-6-(methylamino)nicotinamide]: less than 30% and less than 30%.
Take `CNc1ccc(C(=O)Nc2cc(C)n(C)n2)c(NC2CCN(C(=O)CN3CCN(c4ccc(Nc5ncc6c(C)c(C(C)=O)c(=O)n(C7CCCC7)c6n5)nc4)CC3)CC2)n1` [CPD-228, 2-((1-(2-(4-(6-((6-acetyl-8-cyclopentyl-5-methyl-7-oxo-7,8-dihydropyrido[2,3-d]pyrimidin-2-yl)amino)pyridin-3-yl)piperazin-1-yl)acetyl)piperidin-4-yl)amino)-N-(1,5-dimethyl-1H-pyrazol-3-yl)-6-(methylamino)nicotinamide]: the inhibition at 0.04 µM was less than 30% and the inhibition at 0.2 µM was in the range of 30 to 50%.
The compound `CNc1ccc(C(=O)Nc2ccc(C)nn2)c(NCCCCCNC(=O)CN2CCN(c3ccc(Nc4ncc5c(C)c(C(C)=O)c(=O)n(C6CCCC6)c5n4)nc3)CC2)n1` [CPD-105, 2-((5-(2-(4-(6-((6-Acetyl-8-cyclopentyl-5-methyl-7-oxo-7,8-dihydropyrido[2,3-d]pyrimidin-2-yl)amino)pyridin-3-yl)piperazin-1-yl)acetamido)pentyl)amino)-6-(methylamino)-N-(6-methylpyridazin-3-yl)nicotinamide] had an inhibition at 0.04 µM of less than 30% and an inhibition at 0.2 µM of 50 to 80%.
Compound `CC(=O)c1c(C)c2cnc(Nc3ccc(N4CCN(CC(=O)NCCC5CC(Nc6cc(Cl)ccc6C(=O)Nc6ccc(C)c(C7CC7)n6)C5)CC4)cn3)nc2n(C2CCCC2)c1=O` (centres unmarked) [CPD-255, 2-((3-(2-(2-(4-(6-((6-Acetyl-8-cyclopentyl-5-methyl-7-oxo-7,8-dihydropyrido[2,3-d]pyrimidin-2-yl)amino)pyridin-3-yl)piperazin-1-yl)acetamido)ethyl)cyclobutyl)amino)-4-chloro-N-(6-cyclopropyl-5-methylpyridin-2-yl)benzamide] displayed an inhibition at 0.04 µM of less than 30% and an inhibition at 0.2 µM of 50 to 80%.
